Reference: article PMC8080777, “Discovery, optimization, and evaluation of non-bile acid FXR/TGR5 dual agonists” (Scientific Reports, 2021)

Legend:
SHP mRNA = experiment: In vivo FXR assay: SHP mRNA in mice liver by real-time PCR; settings: CDAHFD-fed C57BL/6J mice, single oral dose 100, 30 and 10 mg/kg, liver four hours after administration
Experimental: (§1) Test compounds were orally administered to 7-week old male C57BL/6J mice (Nippon Charles River Co., Ltd., Yokohama City, Kanagawa, Japan), that were administered CDAHFD (#A06071302, Research Diets, 20 Jules Lane, New Brunswick, NJ, USA) consisting 60 kcal% fat and 0.1% methionine by weight for 7 days. After four hours of administration, the liver was removed, and total RNA was extracted using a Pure Link RNA Mini Kit (Invitrogen, Thermo Fisher Scientific K. K., Minato-ku, Tokyo, Japan). The concentration of total RNA was measured using Micro Sample Spectrophotometer (SimpliNano, GE Healthcare UK Ltd, Amersham Place Little Chalfont Buckinghamshire, HP7 9NA UK), and cDNA was synthesized using ReverTra Ace qPCR RT Master Mix (Toyobo Co., Ltd., Osaka City, Osaka, Japan). Real-time PCR was performed using a CFX96 Touch Real-Time PCR Analysis System (CFX Manager, Bio-Rad, 1000 Alfred Nobel Drive, Hercules, CA, USA), and the mRNA expression levels of SHP and CYP7A1, the target genes of FXR, were measured using the intercalator method.
(§2) S4. In vitro, in vivo assay, and selectvity.
(§3) To directly evaluate the in vitro agonist activity towards FXR, test compounds were evaluated in CHO cells transfected with FXR responsive luciferase reporter (Nuclear Receptor & In Vitro Toxicology Solutions, Indigo Biosciences, State College, PA, USA). […]

CYP7A1 = experiment: In vivo FXR assay: CYP7A1 in mice liver by real-time PCR; settings: CDAHFD-fed C57BL/6J mice, single oral dose 30 and 10 mg/kg, liver four hours after administration
Experimental: as §1, §2, §3

Pharmacokinetics in rats = assay type: in vivo, Sprague-Dawley rats; settings: for Cmax / half-life / CLtot: n=3; for AUC: n=3, AUC0-24h; for Plasma exposure (in words): oral dose of 3 mg/kg; for CLtot: p.o.
Experimental: S3. Supplementary Table S1. Pharmacokinetic properties of 20p and 20q after oral administration […]
Determination of Drug Pharmacokinetics in Sprague-Dawley rats.
Blood samples (about 200 µl) were obtained from the jugular vein at 0.083 (intravenous only), 0.25, 0.5, 1, 2, 4, 8, and 24 hours from 16-hour fasted rats. Plasma was obtained from the blood samples by centrifugation at 3000 rpm for 10 minutes at 4 °C. Plasma were deproteinated and centrifuged at 3000 rpm for 10 minutes at 4 °C. Drug concentrations were measured using LC - MSMS (Triple Quad 4500; […]). Area under the plasma concentration -time curve at 0–24h (AUC0–24h) were calculated using the trapezoidal rule. pharmacokinetic parameters were calculated using the Phoenix WinNonlin 6.4 software (Certara […]

TGR5 = target: T1, TGR5 (Homo sapiens, UniProt Q8TDU6); experiment: TGR5 cAMP assay in CHO cells transfected with TGR5 (cAMP Hunter eXpress, Discover X); assay type: cell-based; settings: for TGR5 Efficacy (%) (1 µM) / TGR5 Efficacy (%) (10 µM): % vs INT-767 10 µM as 100%; for EC50: 4 parameter logistic fit
T1 construct: host or cells: CHO cells
T1 sequence (Q8TDU6 1-330): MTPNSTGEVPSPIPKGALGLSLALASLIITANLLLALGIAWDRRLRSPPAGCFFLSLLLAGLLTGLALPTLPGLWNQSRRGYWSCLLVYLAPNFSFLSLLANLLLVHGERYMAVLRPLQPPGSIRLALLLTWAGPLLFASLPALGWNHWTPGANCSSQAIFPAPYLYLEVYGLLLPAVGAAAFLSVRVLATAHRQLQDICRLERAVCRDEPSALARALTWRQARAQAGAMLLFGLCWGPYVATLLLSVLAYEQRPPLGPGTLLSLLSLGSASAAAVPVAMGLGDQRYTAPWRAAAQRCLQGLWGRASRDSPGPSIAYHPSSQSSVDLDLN

[1] = Sprague-Dawley, rat, plasma, iv, 3mg/kg
[2] = Sprague-Dawley, rat, plasma, po, 3mg/kg

Cmax (Pharmacokinetics in rats; [1]) [ng/mL] | half-life (Pharmacokinetics in rats; [1]) [min] | AUC (Pharmacokinetics in rats; [1]) [ng·h/mL] | clearance (Pharmacokinetics in rats; Sprague-Dawley, rat, plasma, iv, 3mg/kg, n=3, read-out: CLtot (converted)) [mL/min/kg] | Cmax (Pharmacokinetics in rats; [2]) [ng/mL] | half-life (Pharmacokinetics in rats; [2]) [min] | AUC (Pharmacokinetics in rats; [2]) [ng·h/mL] | Plasma exposure (in words) (Pharmacokinetics in rats) | CLtot (Pharmacokinetics in rats; 3mg/kg) [mL/min/kg] | TGR5 agonist activity (in words) (TGR5) | TGR5 Efficacy (%) (1 µM) (TGR5) | TGR5 Efficacy (%) (10 µM) (TGR5) | EC50 (TGR5) [nM] | Structure (SMILES) | Induction of SHP mRNA in the liver (SHP mRNA) | Repression of CYP7A1 in the liver (CYP7A1)
2580 | 302 | 1460 | 34.2 | 3.2 | 271 | 11 | rather low plasma exposure | 2652.33 | strong dual agonist potencies | 51.2 | 80.2 | 790 | COc1ccc(C23CCC(CN(C(=O)c4ccncc4C)c4cc(Cl)cc(Cl)c4)(CC2)CC3)cc1C#N [Compound 20q] | dose-dependently induced SHP mRNA in the liver | decreased CYP7A1 in the liver
 |  |  |  | 50.3 | 87 | 121 | rather low plasma exposure | 426.93 | strong dual agonist potencies | 51.1 | 62.4 | 420 | COc1cc(Cl)cc(N(CC23CCC(c4ccc(OC)c(C#N)c4)(CC2)CC3)C(=O)c2ccncc2C)c1 [Compound 20p] | dose-dependently induced SHP mRNA in the liver | decreased CYP7A1 in the liver
